The target of one assay is T1, Apoptosome (Homo sapiens, UniProt O14727).
T1 sequence (O14727 1-1248): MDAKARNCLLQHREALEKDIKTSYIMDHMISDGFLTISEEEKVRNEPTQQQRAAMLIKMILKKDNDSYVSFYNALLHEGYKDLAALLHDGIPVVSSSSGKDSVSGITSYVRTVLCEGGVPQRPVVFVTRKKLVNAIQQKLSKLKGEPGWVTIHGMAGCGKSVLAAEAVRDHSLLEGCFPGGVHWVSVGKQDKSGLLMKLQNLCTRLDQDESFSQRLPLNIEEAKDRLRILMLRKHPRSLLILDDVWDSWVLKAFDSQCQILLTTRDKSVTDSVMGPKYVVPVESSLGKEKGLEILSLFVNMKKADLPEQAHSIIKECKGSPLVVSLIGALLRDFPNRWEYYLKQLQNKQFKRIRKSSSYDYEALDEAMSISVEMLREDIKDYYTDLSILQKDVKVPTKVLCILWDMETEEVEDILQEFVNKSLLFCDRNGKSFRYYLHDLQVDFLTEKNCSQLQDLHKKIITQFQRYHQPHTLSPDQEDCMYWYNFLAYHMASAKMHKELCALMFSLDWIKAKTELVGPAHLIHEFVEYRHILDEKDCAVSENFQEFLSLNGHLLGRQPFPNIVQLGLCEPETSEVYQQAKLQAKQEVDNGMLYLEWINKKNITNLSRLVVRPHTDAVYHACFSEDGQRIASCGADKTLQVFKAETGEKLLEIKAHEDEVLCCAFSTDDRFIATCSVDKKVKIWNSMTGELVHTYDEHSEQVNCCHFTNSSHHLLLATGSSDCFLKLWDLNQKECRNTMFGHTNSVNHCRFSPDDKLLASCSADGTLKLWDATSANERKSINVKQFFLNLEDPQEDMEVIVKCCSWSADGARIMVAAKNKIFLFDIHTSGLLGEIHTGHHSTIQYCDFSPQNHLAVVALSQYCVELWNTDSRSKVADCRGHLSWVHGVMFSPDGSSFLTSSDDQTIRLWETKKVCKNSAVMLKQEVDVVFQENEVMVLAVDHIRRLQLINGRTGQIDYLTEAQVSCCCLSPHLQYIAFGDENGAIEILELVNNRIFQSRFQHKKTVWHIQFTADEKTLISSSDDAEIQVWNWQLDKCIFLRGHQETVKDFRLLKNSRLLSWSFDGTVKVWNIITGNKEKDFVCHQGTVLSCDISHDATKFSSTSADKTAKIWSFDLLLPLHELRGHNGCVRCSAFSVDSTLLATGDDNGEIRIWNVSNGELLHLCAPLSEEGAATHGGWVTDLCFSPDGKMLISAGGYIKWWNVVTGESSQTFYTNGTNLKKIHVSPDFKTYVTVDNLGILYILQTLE
In words: Apoptosome activity assay. In kind it is biochemical. The note with it: reconstituted in vitro; MM01 5 µM (Figure 2C). The protocol:
Apoptosome was reconstituted by incubating rApaf-1 (100 nM) with vehicle (DMSO) or compounds in assay buffer (20 mM HEPES, 10 mMKCI, 1.5 mM MgCI2, 1 mM EDTA, 1 mM EGTA, 1 mM DTT, 0.1 mM PMSF) at 30°C for 30 min. Next, 100 µM dATP and 100 nM Cytc were added and incubated for additional 40 min. Then, caspase-9 (100 nM) was added, and activity was monitored by the Ac-LEHD-afc substrate (50 µM) using a Victor 2 spectrofluorimeter.

The subject of a further assay is human NLRP1 inflammasome. The assay is described as follows: NLRP1 inflammasome activation, LPS plus MDP, THP-1 cells. The format is cell-based. The protocol: (§1) The materials and methods employed in these experiments are now described. The molecules were evaluated in the THP-1, or PMA-differentiated THP-1 cells (50 nM PMA for 24h) as described in Example 3. To stimulate NLRP1 inflammasome, cells were either mock-treated or primed with compounds at the indicated concentrations for 30 min, followed by treatment with 100 ng/mL LPS (Sigma) and 50 µg/ml MDP (Sigma) for 6 h at 37°C. In the case of NLRC4 inflammasome induction, cells were pretreated with the compounds for 30 min and then cells were stimulated for 3 h with Salmonella Typhimurium (MOI 5). To induce AIM2 inflammasome, cells were pretreated in the same conditions as before and transfected with poly(dA:dT) (200 µg/ml; Sigma) overnight using Lipofectamine 2000 (Invitrogen). Both IL-1β secretion and the release of IL-18 were monitored as previously described in Example 3.

A further assay addresses T2, Recombinant caspase-1 (Homo sapiens, UniProt P29466).
T2 sequence (P29466 120-297 limits assumed): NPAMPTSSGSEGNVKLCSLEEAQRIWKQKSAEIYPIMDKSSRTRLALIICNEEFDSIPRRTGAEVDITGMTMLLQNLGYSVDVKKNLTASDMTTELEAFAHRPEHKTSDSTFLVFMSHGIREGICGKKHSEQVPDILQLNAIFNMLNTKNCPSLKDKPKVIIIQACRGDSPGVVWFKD
T2 sequence (P29466 317-404 limits assumed): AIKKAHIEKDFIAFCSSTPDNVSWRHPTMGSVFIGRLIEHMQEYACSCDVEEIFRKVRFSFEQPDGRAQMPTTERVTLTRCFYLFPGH
In words: caspase-1 in vitro activation assay (secondary screening). The format is biochemical. To be noted: preactivated recombinant caspase-1. The protocol: Recombinant caspase-1 (50 nM) was incubated with the indicated concentrations of compounds for 20 min at RT in Assay Buffer. Then fluorogenic substrate Ac-WEHD-AFC (80 µM) was added, and activity was monitored in a Wallac Victor workstation. Data are reported as the percentage of inhibition compared with the absence of the inhibitor.

Another assay has as its system AIM2 inflammasome. In words: AIM2 inflammasome activation, poly(dA:dT), PMA-differentiated THP-1 cells. In kind it is cell-based, human. The note with it: PMA-differentiated THP-1, poly(dA:dT) 200 µg/ml; MM01 10 µM. The method, then: as §1
Assay [1] concerns NLRP3 activation in MSU-induced peritonitis. In words: MSU-induced peritonitis mouse model. In kind it is in vivo, C57BL/6 mice. The note with it: 10 mg/kg i.p. 30 min before MSU 2 mg/mouse i.p. The protocol: We next evaluated the efficacy of MM01 in a murine MSU-induced peritonitis model. (Spalinger MR et al. Bio-protocol 2018; 8(5): e2754). Mono-sodium urate (MSU; InvivoGen) crystals are potent activators of the NLRP3 receptor. Upon activation, NLRP3 induces the formation of inflammasome complex, which lead to the production and release of mature IL-1β. In the early phase of peritonitis, the number of infiltrating neutrophils correlates with the production of mature IL-1β. MM01 was injected intraperitoneal 30 min before MSU crystals i.p. injection.
In vivo model was performed according to the protocol approved by the Institutional Animal Ethical Committee of CIPF. C57BL/6 mice were injected i.p. with 10 mg/kg MM01 or vehicle 30 min before i.p. injection of MSU (2 mg MSU crystals in 200 µl sterile PBS). After 6 h, mice were sacrificed, and peritoneal lavage with 5 ml of PBS was performed. Cytokine IL-1β secretion was determined by ELISA (#DY401 R&D Systems) and neutrophil content measured in ACVLAB Laboratorio Valencia.

Take `C=CCN1C(=O)/C(=C2/C(=O)Nc3ccccc32)SC1=S` [MM01]: on Apoptosome, the “inhibition of the apoptosome” value was “No inhibition”. In addition, the IL-18 release entry in the assay with human NLRP1 inflammasome (THP-1, LPS 100 ng/ml + MDP 50 µg/ml) is listed as “avoided”. In addition, the IL-1β release result in the assay with human NLRP1 inflammasome (THP-1, LPS 100 ng/ml + MDP 50 µg/ml, MM01 1, 2.5 or 5 µM) is “avoided”. For the same molecule, the procaspase-1 activation entry in the assay on human NLRP1 inflammasome (THP-1, LPS 100 ng/ml + MDP 50 µg/ml, pretreatment) is reported as “avoided”. In addition, the pyroptotic cell death result in the assay with human NLRP1 inflammasome (THP-1, LPS + MDP, LDH release) is “protected”. The caspase-1 activity entry at Recombinant caspase-1 was “do not act on”. For the same molecule, in the assay on AIM2 inflammasome, the IL-1β secretion result was “significantly decreased”. The neutrophil recruitment entry in assay [1] (peritoneal cavity after 6 h) is recorded as “efficiently suppressed”. The “MSU injection-induced IL-1β production” value in assay [1] (peritoneal lavage after 6 h, ELISA) was “efficiently suppressed”.

For the origin of these results see patent EP3884941A1, “INFLAMMASOME INHIBITORS AND USE THEREOF” (CENTRO DE INVESTIGACION PRINCIPE FELIPE, priority 2020, dated 2021).
